Assay results as given in patent publication US20260193238A1, “PHARMACEUTICAL COMPOUNDS AS PARP7 AND/OR PARP1 INHIBITORS” (Duke Street Bio Limited, priority 2022, published 2026).

Target: PARP1 (Homo sapiens, UniProt P09874)
Assay: PARP1 biochemical DELFIA assay (auto-PARylation)

Chain of PARP1 (P09874 whole entry): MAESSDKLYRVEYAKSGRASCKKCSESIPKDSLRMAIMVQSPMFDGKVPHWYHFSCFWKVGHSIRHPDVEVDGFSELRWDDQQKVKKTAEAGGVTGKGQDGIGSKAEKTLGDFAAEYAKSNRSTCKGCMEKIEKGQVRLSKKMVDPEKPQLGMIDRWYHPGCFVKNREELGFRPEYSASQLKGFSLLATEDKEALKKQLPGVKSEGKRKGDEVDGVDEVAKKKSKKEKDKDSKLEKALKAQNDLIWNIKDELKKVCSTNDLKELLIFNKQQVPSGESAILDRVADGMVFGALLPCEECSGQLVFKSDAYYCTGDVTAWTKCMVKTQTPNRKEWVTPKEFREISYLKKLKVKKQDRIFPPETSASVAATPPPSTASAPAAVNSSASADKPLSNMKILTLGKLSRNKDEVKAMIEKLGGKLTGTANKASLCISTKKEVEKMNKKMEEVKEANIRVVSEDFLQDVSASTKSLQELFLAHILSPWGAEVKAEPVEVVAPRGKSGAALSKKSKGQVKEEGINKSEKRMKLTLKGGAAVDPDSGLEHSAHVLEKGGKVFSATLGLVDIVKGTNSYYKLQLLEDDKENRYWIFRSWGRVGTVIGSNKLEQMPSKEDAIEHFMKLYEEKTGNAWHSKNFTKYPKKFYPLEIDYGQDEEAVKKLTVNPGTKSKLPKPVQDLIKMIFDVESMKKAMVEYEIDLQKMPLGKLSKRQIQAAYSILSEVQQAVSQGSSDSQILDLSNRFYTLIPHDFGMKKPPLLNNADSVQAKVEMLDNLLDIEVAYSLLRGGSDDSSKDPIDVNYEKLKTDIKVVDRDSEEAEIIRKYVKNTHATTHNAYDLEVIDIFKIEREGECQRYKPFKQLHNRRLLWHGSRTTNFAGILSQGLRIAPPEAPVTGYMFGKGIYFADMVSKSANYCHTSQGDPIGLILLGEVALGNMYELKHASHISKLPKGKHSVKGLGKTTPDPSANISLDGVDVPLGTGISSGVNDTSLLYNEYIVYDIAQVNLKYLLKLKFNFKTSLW

Row | IC50 (Table 1) [µM] | IC50 (Table 1A) [µM] | SMILES
1 | 0.1 to 1 | – | O=C(CCC1CCN(c2ncc(C(F)(F)F)cn2)CC1)N1CCCC(c2cc(C(F)(F)F)c(=O)[nH]n2)C1 (single isomer, unassigned) [Compound 4a]
2 | 0.1 to 1 | – | O=C(CCN1CCCC(c2cc(C(F)(F)F)c(=O)[nH]n2)C1)N1CCN(c2ncc(C(F)(F)F)cn2)CC1 (single isomer, unassigned) [Compound 1a, 6-(1-(3-oxo-3-(4-(5-(trifluoromethyl)pyrimidin-2-yl)piperazin-1-yl)propyl)piperidin-3-yl)-4-(trifluoromethyl)pyridazin-3(2H)-one]
3 | 0.01 to 0.1 | – | CCc1cc(C2CCCN(CCC(=O)N3CCN(c4ncc(C(F)(F)F)cn4)CC3)C2)n[nH]c1=O (single isomer, unassigned) [Compound 6a, 4-ethyl-6-(1-(3-oxo-3-(4-(5-(trifluoromethyl)pyrimidin-2-yl)piperazin-1-yl)propyl)piperidin-3-yl)pyridazin-3(2H)-one]
4 | – | 0.1 to 1 | O=C(CCN1CC2(c3cc(C(F)(F)F)c(=O)[nH]n3)CC1C2)N1CCN(c2ncc(C(F)(F)F)cn2)CC1 [Compound 103]
5 | – | 0.1 to 1 | O=C(CN1CCCC1c1cc(C(F)(F)F)c(=O)[nH]n1)N1CCC2(CC1)CN(c1ncc(C(F)(F)F)cn1)C2 (single isomer, unassigned) [Compound 101b]
6 | – | 0.01 to 0.1 | N#Cc1cc(C2CCCN2CC(=O)N2CCN(c3nc4cc(F)ccc4o3)CC2)n[nH]c1=O (single isomer, unassigned) [Compound 149a]
7 | 0.01 to 0.1 | – | O=C(CCN1CCCC(c2cc(C(F)(F)F)c(=O)[nH]n2)C1)N1CCN(c2ncc(C(F)(F)F)cn2)CC1 (single isomer, unassigned) [Compound 1b, 6-(1-(3-oxo-3-(4-(5-(trifluoromethyl)pyrimidin-2-yl)piperazin-1-yl)propyl)piperidin-3-yl)-4-(trifluoromethyl)pyridazin-3(2H)-one]
8 | 0.1 to 1 | – | O=C(CCN1CCCC(c2cc(C(F)(F)F)c(=O)[nH]n2)C1)N1CCN(c2ncc(F)cn2)CC1 (racemic) [Compound 17rac]
9 | 0.1 to 1 | – | O=C(CCN1CCCC(c2cc(C(F)(F)F)c(=O)[nH]n2)C1)N1CCN(c2ccc(Cl)cn2)CC1 (single isomer, unassigned) [Compound 15a]
10 | 0.01 to 0.1 | – | O=C(CCN1CCCCC1c1cc(C(F)(F)F)c(=O)[nH]n1)N1CCN(c2ncc(C(F)(F)F)cn2)CC1 (racemic) [Compound 21rac]
11 | – | 0.01 to 0.1 | O=C(CN1CCCC1c1c[nH]c(=O)c(C(F)(F)F)c1)N1CCN(c2ncc(Cl)cn2)CC1 (single isomer, unassigned) [Compound 74a]
12 | – | 0.1 to 1 | Cc1[nH]c(=O)c(C(F)(F)F)cc1C1CCCN1CC(=O)N1CCN(c2ncc(C(F)(F)F)cn2)CC1 (single isomer, unassigned) [Compound 102a, 6-methyl-5-(1-(2-oxo-2-(4-(5-(trifluoromethyl)pyrimidin-2-yl)piperazin-1-yl)ethyl)pyrrolidin-2-yl)-3-(trifluoromethyl)pyridin-2(1H)-one]
13 | – | 1 to 10 | O=C(CN1CCCC1c1c[nH]c(=O)c(C(F)(F)F)c1)N1CCN(c2ncc(Cl)cn2)CC1 (single isomer, unassigned) [Compound 74b]
14 | – | 1 to 10 | O=C(CN1Cc2ccccc2C1c1cc(C(F)(F)F)c(=O)[nH]n1)N1CCN(c2ncc(C(F)(F)F)cn2)CC1 (single isomer, unassigned) [Compound 104b, 6-(2-(2-oxo-2-(4-(5-(trifluoromethyl)pyrimidin-2-yl)piperazin-1-yl)ethyl)isoindolin-1-yl)-4-(trifluoromethyl)pyridazin-3(2H)-one]
15 | – | 0.01 to 0.1 | CNC(=O)c1ccc(N2CCN(C(=O)CCN3CCC(c4cc(C(F)(F)F)c(=O)[nH]n4)CC3)CC2)cn1 [Compound 59]
16 | – | 0.1 to 1 | O=C(CN1CCCC1c1n[nH]c(=O)c2ccccc12)N1CCN(c2ncc(C(F)(F)F)cn2)CC1 (single isomer, unassigned) [Compound 38a, 4-(1-(2-oxo-2-(4-(5-(trifluoromethyl)pyrimidin-2-yl)piperazin-1-yl)ethyl)pyrrolidin-2-yl)phthalazin-1(2H)-one]
17 | – | 0.01 to 0.1 | O=C(CN1CCCC1c1cc(C2CC2)c(=O)[nH]n1)N1CCN(c2ncc(C(F)(F)F)cn2)CC1 (racemic) [Compound 65rac]
18 | – | 0.01 to 0.1 | CC(C)(C)c1cnc(N2CCN(C(=O)CN3CCCC3c3cc(C(F)(F)F)c(=O)[nH]n3)CC2)nc1 (single isomer, unassigned) [Compound 82a]
19 | – | 1 to 10 | N#Cc1cc(C2CCCN2CC(=O)N2CCN(c3nc4cc(Cl)ccc4o3)CC2)n[nH]c1=O (single isomer, unassigned) [Compound 121b]
20 | – | 0.1 to 1 | O=C(CN1CC(F)(F)C[C@@H]1c1cc(C(F)(F)F)c(=O)[nH]n1)N1CCN(c2ncc(C(F)(F)F)cn2)CC1 [Compound 91a, (R)-6-(4,4-difluoro-1-(2-oxo-2-(4-(5-(trifluoromethyl)pyrimidin-2-yl)piperazin-1-yl)ethyl)pyrrolidin-2-yl)-4-(trifluoromethyl)pyridazin-3(2H)-one]
21 | – | 0.01 to 0.1 | O=C(CN1CCCC1c1cc(C(F)(F)F)c(=O)[nH]n1)N1CCN(c2ncc(C3CC3)cn2)CC1 (single isomer, unassigned) [Compound 69a]
22 | – | 0.01 to 0.1 | N#Cc1cc(Cl)cnc1N1CCN(C(=O)CN2CCCC2c2cc(C(F)(F)F)c(=O)[nH]n2)CC1 (single isomer, unassigned) [Compound 144a]
23 | – | 1 to 10 | O=C(CN1CCCC1c1cc(C(F)(F)F)c(=O)[nH]n1)N1CC2(CCN(c3ncc(C(F)(F)F)cn3)CC2)C1 (single isomer, unassigned) [Compound 110b]
24 | 0.1 to 1 | – | O=C(CCN1CCCC(c2cc(C(F)(F)F)c(=O)[nH]n2)C1)N1CCN(c2ccc(F)cn2)CC1 (single isomer, unassigned) [Compound 8a]
25 | – | 1 to 10 | O=C(CN1CC(F)(F)C[C@H]1c1cc(C(F)(F)F)c(=O)[nH]n1)N1CCN(c2ncc(C(F)(F)F)cn2)CC1 [Compound 91b, (S)-6-(4,4-difluoro-1-(2-oxo-2-(4-(5-(trifluoromethyl)pyrimidin-2-yl)piperazin-1-yl)ethyl)pyrrolidin-2-yl)-4-(trifluoromethyl)pyridazin-3(2H)-one]

Further lines, the molecule ahead of its results:

Row | SMILES | IC50 (Table 1) [µM] | IC50 (Table 1A) [µM]
26 | O=C(CN1CCCC1c1cc(C(F)(F)F)c(=O)[nH]n1)N1CCN(c2nc3ccc(Cl)cc3o2)CC1 (single isomer, unassigned) [Compound 85a] | – | ≤ 0.01
27 | O=C(CN1CCCC1c1cc(C(F)(F)F)c(=O)[nH]n1)N1CCN(c2nc3cc(F)ccc3o2)CC1 (single isomer, unassigned) [Compound 93b] | – | 1 to 10
28 | O=C(CN1CCCC1c1cc(C(F)(F)F)c(=O)[nH]n1)N1CCN(c2ccc(Cl)cn2)CC1 (single isomer, unassigned) [Compound 41a] | – | 0.01 to 0.1
29 | O=C(CN1CCCC1c1cc(C(F)(F)F)c(=O)[nH]n1)N1CCN(c2nc3ccc(F)cn3n2)CC1 (single isomer, unassigned) [Compound 128a] | – | ≤ 0.01
30 | O=C(CN1CCN(c2ncc(C(F)(F)F)cn2)CC1)N1CCCC1c1c[nH]c(=O)c(C(F)(F)F)c1 (single isomer, unassigned) [Compound 63a] | – | 0.01 to 0.1
31 | O=C(CN1CCCC1c1cc(C(F)(F)F)c(=O)[nH]n1)N1CCN(c2ccc(F)cn2)CC1 (single isomer, unassigned) [Compound 46b] | – | 0.1 to 1
32 | N#Cc1cc(C2CCCN2CC(=O)N2CCN(c3nc4ccc(F)cc4o3)CC2)n[nH]c1=O (single isomer, unassigned) [Compound 111a] | – | 0.01 to 0.1
33 | CNC(=O)c1ccc(N2CCN(C(=O)CN3CCCC3c3cc(C(F)(F)F)c(=O)[nH]n3)CC2)nc1 (single isomer, unassigned) [Compound 55b] | – | 0.1 to 1
34 | O=C(CN1CCC(c2cc(C(F)(F)F)c(=O)[nH]n2)CC1)N1CCN(c2ncc(C(F)(F)F)cn2)CC1 [Compound 62] | – | 0.1 to 1
35 | O=C(CN1CCCC1c1cc(C(F)(F)F)c(=O)[nH]n1)N1CCN(c2ncc(OC(F)(F)F)cn2)CC1 (single isomer, unassigned) [Compound 72b] | – | ≤ 0.01
36 | O=C(CCN1CCCCC(c2cc(C(F)(F)F)c(=O)[nH]n2)C1)N1CCN(c2ncc(C(F)(F)F)cn2)CC1 (racemic) [Compound 12rac] | 0.1 to 1 | –
37 | COC1CC(c2cc(C(F)(F)F)c(=O)[nH]n2)N(CC(=O)N2CCN(c3ncc(C(F)(F)F)cn3)CC2)C1 (single isomer, unassigned) [Compound 138cis1, 6-(4-methoxy-1-(2-oxo-2-(4-(5-(trifluoromethyl)pyrimidin-2-yl)piperazin-1-yl)ethyl)pyrrolidin-2-yl)-4-(trifluoromethyl)pyridazin-3(2H)-one] | – | 0.01 to 0.1
38 | O=C(CN1CCCC1c1cc(C(F)(F)F)c(=O)[nH]n1)N1CCN(c2ncc(Cl)cn2)CC1 (single isomer, unassigned) [Compound 35b] | – | 1 to 10
39 | O=C(CN1CCCC(c2cc(C(F)(F)F)c(=O)[nH]n2)C1)N1CCN(c2ncc(C(F)(F)F)cn2)CC1 (single isomer, unassigned) [Compound 14b] | 0.1 to 1 | –
40 | O=C(CCN1CCC(c2n[nH]c(=O)c3ccccc23)CC1)N1CCN(c2ncc(C(F)(F)F)cn2)CC1 [Compound 49] | – | 0.01 to 0.1
41 | O=C(CN1CCCC1c1cc(C(F)(F)F)c(=O)[nH]n1)N1CCN(c2ncc(F)cc2F)CC1 (single isomer, unassigned) [Compound 83a] | – | 0.1 to 1
42 | O=C(CN1CCCC1c1cc(C(F)(F)F)c(=O)[nH]n1)N1CCN(c2ncc(F)cc2Cl)CC1 (single isomer, unassigned) [Compound 116b] | – | 1 to 10
43 | CNC(=O)c1ccc(N2CCN(C(=O)CCN3CCCC(c4cc(C(F)(F)F)c(=O)[nH]n4)C3)CC2)nc1 (single isomer, unassigned) [Compound 28a] | 0.1 to 1 | –
44 | O=C(CN1CCCC1c1cc(C(F)(F)F)c(=O)[nH]n1)N1CCN(c2ccc(C3CC3)cn2)CC1 (single isomer, unassigned) [Compound 79a] | – | 0.01 to 0.1
45 | O=C(CN1CCCC1c1cc(C(F)(F)F)c(=O)[nH]n1)N1CCN(c2ncc(Cl)cc2Cl)CC1 (single isomer, unassigned) [Compound 125b] | – | 1 to 10
46 | N#Cc1cc(C2CCCN2CC(=O)N2CCN(c3ncc(C(F)(F)F)cn3)CC2)n[nH]c1=O (single isomer, unassigned) [Compound 98b, 3-oxo-6-(1-(2-oxo-2-(4-(5-(trifluoromethyl)pyrimidin-2-yl)piperazin-1-yl)ethyl)pyrrolidin-2-yl)-2,3-dihydropyridazine-4-carbonitrile] | – | 1 to 10
